Test results published in patent US20100120763A1, “IMIDAZO[5,1-C][1,2,4]BENZOTRIAZINE DERIVATIVES AS INHIBITORS OF PHOSPHODIESTERASES” (priority 2008, published 2010).
Where two headings read alike, the source gives them in different places.

Assays:
PDE10A = biological target: T1, PDE10A (Homo sapiens, UniProt Q9Y233); test: Inhibition of recombinant PDE10A (baculovirus/SF21 system), [3H]-cAMP SPA; assay type: biochemical
T1 construct: made in house; host or cells: SF21 insect cells (baculovirus)

PDE2A = biological target: T2, PDE2A (Homo sapiens, UniProt O00408); test: Inhibition of recombinant PDE2A (expressed in baculovirus/SF21-cells), [3H]-cAMP SPA; assay type: biochemical
T2 construct: made in house; host or cells: SF21 insect cells (baculovirus)
Outline: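 Membrane fraction of baculovirus/SF21-expressed PDE2A was incubated 30 min at 37° C in Tris-HCl/MgCl2 pH 7.4 with 0.5 μM [3H]-cAMP and 1000 nM cGMP as activator. Product was detected by SPA scintillation. IC50 used a Hill-plot 2-parameter model.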

[1] = recombinant PDE10A1, cytosolic, 0.1 μM [3H]-cAMP, 37° C., 30 minutes, read-out: PDE10A IC50

T2 sequence (O00408 whole entry): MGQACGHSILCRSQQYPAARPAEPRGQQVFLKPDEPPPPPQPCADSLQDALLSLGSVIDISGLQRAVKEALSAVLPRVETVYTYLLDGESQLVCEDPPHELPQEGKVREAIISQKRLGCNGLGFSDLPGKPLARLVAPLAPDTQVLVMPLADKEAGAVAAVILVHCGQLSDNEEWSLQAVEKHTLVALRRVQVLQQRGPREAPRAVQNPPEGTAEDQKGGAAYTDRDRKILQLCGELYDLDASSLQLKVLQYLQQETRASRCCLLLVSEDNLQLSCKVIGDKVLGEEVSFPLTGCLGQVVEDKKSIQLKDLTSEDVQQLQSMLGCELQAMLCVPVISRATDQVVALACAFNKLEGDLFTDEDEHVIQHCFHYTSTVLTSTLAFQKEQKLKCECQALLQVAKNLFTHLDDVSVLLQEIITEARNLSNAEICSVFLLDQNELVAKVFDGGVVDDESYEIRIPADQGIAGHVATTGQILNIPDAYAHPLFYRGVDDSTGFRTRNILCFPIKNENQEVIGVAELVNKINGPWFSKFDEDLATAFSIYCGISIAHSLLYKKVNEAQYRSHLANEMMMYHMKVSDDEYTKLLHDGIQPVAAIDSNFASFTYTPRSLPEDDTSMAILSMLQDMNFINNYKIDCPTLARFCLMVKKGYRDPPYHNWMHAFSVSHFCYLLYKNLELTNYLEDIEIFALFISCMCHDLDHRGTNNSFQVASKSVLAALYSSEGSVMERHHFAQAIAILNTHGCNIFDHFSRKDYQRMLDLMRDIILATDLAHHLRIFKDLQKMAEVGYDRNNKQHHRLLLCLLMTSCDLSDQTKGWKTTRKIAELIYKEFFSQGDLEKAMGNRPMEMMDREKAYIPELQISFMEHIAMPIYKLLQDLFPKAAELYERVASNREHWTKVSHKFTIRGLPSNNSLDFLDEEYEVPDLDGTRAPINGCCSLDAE
T1 sequence (Q9Y233 1-779 isoform Q9Y233-1): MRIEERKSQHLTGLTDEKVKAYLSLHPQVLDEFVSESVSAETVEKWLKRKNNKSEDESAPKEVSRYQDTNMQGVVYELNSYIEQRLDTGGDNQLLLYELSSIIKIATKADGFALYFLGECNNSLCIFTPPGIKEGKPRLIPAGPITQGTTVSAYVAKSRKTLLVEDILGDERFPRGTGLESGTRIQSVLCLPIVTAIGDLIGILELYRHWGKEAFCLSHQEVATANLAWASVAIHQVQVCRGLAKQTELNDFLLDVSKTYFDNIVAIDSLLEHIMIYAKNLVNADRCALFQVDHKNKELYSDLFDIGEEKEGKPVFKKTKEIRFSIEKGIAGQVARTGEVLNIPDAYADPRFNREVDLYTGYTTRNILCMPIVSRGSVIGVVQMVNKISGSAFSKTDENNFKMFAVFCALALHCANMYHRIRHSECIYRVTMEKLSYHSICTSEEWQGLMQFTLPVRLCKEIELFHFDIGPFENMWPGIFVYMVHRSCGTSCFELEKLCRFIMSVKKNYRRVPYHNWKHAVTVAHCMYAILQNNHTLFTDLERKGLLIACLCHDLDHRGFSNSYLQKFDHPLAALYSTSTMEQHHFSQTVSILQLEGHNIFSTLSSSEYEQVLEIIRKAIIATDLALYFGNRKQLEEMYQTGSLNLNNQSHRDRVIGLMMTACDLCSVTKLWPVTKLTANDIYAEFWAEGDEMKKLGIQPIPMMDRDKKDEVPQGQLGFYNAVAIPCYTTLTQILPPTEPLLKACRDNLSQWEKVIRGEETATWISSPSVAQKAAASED

Compound | melting point | IC50 (PDE10A; [1]) [nM] | IC50 (PDE2A) [nM] | IC50 (PDE10A) [nM]
Cc1nc(-c2cc(Cl)ccc2Cl)n2c1nnc1ccc(-c3cc(Cl)ccc3Cl)cc12 | 190 to 193 °C | – | – | –
Cc1nc(-c2cc(OC(C)C)ccc2F)n2c1nnc1ccc(-c3cc(OC(C)C)ccc3F)cc12 | 160.5 to 162 °C | – | – | –
CCOc1ccc(F)c(-c2ccc3nnc4c(C)nc(-c5cc(OCC)ccc5F)n4c3c2)c1 | 152 to 155 °C | – | – | –
CCCCOc1ccc(F)c(-c2nc(C)c3nnc4cc(F)ccc4n23)c1 | 91 to 94 °C | – | – | –
CCCOc1ccc(F)c(-c2nc(C)c3nnc4cc(F)ccc4n23)c1 | 119 to 122 °C | – | – | –
CCCc1nc(C)c2nnc3ccc(F)cc3n12 [Example 1, 8-fluoro-3-methyl-1-propyl-imidazo[5,1-c][1,2,4]benzotriazine] | 124.5 to 126.5 °C | 626 | 716 | –
CCCc1nc(C)c2nnc3cc(OC)ccc3n12 [Example 2, 7-methoxy-3-methyl-1-propyl-imidazo[5,1-c][1,2,4]benzotriazine] | 159 to 162 °C | 401 | 546 | –
CCc1nc(C)c2nnc3ccc(F)cc3n12 [Example 3, 1-ethyl-8-fluoro-3-methyl-imidazo[5,1-c][1,2,4]benzotriazine] | 187 to 190 °C | 3900 | 3760 | –
Cc1nc(C2CCCCC2)n2c1nnc1ccc(F)cc12 [Example 4, 1-cyclohexyl-8-fluoro-3-methyl-imidazo[5,1-c][1,2,4]benzotriazine] | 246 to 250 °C (dec.) | 228 | 541 | –
COc1ccc2nnc3c(C)nc(-c4cc(Cl)ccc4Cl)n3c2c1 [Example 5, 1-(2,5-dichlorophenyl)-8-methoxy-3-methyl-imidazo[5,1-c][1,2,4]benzotriazine] | 165 to 168 °C | 23.7 | 3.31 | –
Cc1nc(-c2cc(Cl)ccc2Cl)n2c1nnc1cc(F)ccc12 [Example 6, 1-(2,5-dichlorophenyl)-7-fluoro-3-methyl-imidazo[5,1-c][1,2,4]benzotriazine] | 186 to 190 °C | 761 | 29.8 | –
COc1ccc2c(c1)nnc1c(C)nc(-c3cc(Cl)ccc3Cl)n12 [Example 7, 1-(2,5-dichlorophenyl)-7-methoxy-3-methyl-imidazo[5,1-c][1,2,4]benzotriazine] | 144 to 147 °C | 258 | 17.8 | –
Cc1nc(-c2cc(Cl)ccc2Cl)n2c1nnc1ccc(F)cc12 [Example 8, 1-(2,5-dichlorophenyl)-8-fluoro-3-methylbenzo[e]imidazo[5,1-c][1,2,4]triazine] | 146 to 149 °C | 176 | 36.5 | –
CCC(C)c1nc(C)c2nnc3ccc(F)cc3n12 (centres unmarked) [Example 10, 1-sec-butyl-8-fluoro-3-methylbenzo[e]imidazo[5,1-c][1,2,4]triazine] | 169 to 171.5 °C | – | 1530 | 410
Cc1ncn2c1nnc1ccc(F)cc12 [Example 11, 8-fluoro-3-methylbenzo[e]imidazo[5,1-c][1,2,4]triazine] | 230 °C | > 10000 | > 10000 | –
Cc1ncccc1-c1nc(C)c2nnc3ccc(F)cc3n12 [Example 12, 8-fluoro-3-methyl-1-(2-methylpyridin-3-yl)benzo[e]imidazo[5,1-c][1,2,4]triazine] | 207 to 210 °C | 780 | 187 | –
Cc1nc(-c2ccccc2Cl)n2c1nnc1ccc(F)cc12 [Example 13, 1-(2-chlorophenyl)-8-fluoro-3-methylbenzo[e]imidazo[5,1-c][1,2,4]triazine] | 189 to 192 °C | 86 | 32.6 | –
Cc1nc(-c2cccc(Cl)c2Cl)n2c1nnc1ccc(F)cc12 [Example 14, 1-(2,3-dichlorophenyl)-8-fluoro-3-methylbenzo[e]imidazo[5,1-c][1,2,4]triazine] | 193 to 196 °C | 308 | 371 | –
Cc1nc(-c2ccnn2C)n2c1nnc1ccc(F)cc12 [Example 15, 8-fluoro-3-methyl-1-(1-methyl-1H-pyrazol-5-yl)benzo[e]imidazo[5,1-c][1,2,4]triazine] | 217 to 220 °C | > 5000 | > 1000 | –
COc1ccccc1-c1nc(C)c2nnc3ccc(F)cc3n12 [Example 16, 8-fluoro-1-(2-methoxyphenyl)-3-methylbenzo[e]imidazo[5,1-c][1,2,4]triazine] | 196 to 198 °C | 456 | 351 | –
Cc1ccccc1-c1nc(C)c2nnc3ccc(F)cc3n12 [Example 17, 8-fluoro-3-methyl-1-o-tolylbenzo[e]imidazo[5,1-c][1,2,4]triazine] | 192 to 195 °C | 196 | 122 | –

Second part, led by results:

melting point | IC50 (PDE10A; [1]) [nM] | IC50 (PDE2A) [nM] | Compound | IC50 (PDE10A) [nM]
190 to 192 °C | 183 | 20.1 | COc1ccc(Cl)c(-c2nc(C)c3nnc4ccc(F)cc4n23)c1 [Example 18, 1-(2-chloro-5-methoxyphenyl)-8-fluoro-3-methylbenzo[e]imidazo[5,1-c][1,2,4]triazine] | –
179 to 182 °C | 115 | – | COc1ccccc1-c1nc(C)c2nnc3ccc(Cl)cc3n12 [Example 39, 8-chloro-1-(2-methoxyphenyl)-3-methylbenzo[e]imidazo[5,1-c][1,2,4]triazine] | –
269 to 272 °C | – | – | COc1cc2nnc3c(C)nc(-c4ccccc4Cl)n3c2cc1OC [Example 46, 1-(2-chlorophenyl)-7,8-dimethoxy-3-methylbenzo[e]imidazo[5,1-c][1,2,4]triazine] | –
219 to 221 °C | – | – | COc1cc2nnc3c(C)nc(-c4ccccc4C)n3c2cc1OC [Example 49, 7,8-dimethoxy-3-methyl-1-o-tolylbenzo[e]imidazo[5,1-c][1,2,4]triazine] | –
196 to 199 °C | – | – | COc1cc2nnc3c(C)nc(CC(C)C)n3c2cc1OC [Example 53, 1-isobutyl-7,8-dimethoxy-3-methylbenzo[e]imidazo[5,1-c][1,2,4]triazine] | –
200 °C | – | – | COc1cc2nnc3c(C)nc(Br)n3c2cc1OC [Example 54, 1-bromo-7,8-dimethoxy-3-methylbenzo[e]imidazo[5,1-c][1,2,4]triazine] | –
175 °C | – | – | COc1cc2nnc3c(C)nc(-c4cc(Cl)ccc4Cl)n3c2cc1OC [Example 55, 1-(2,5-dichlorophenyl)-7,8-dimethoxy-3-methylbenzo[e]imidazo[5,1-c][1,2,4]triazine] | –
247 to 249 °C | – | – | COc1cc2nnc3c(C)nc(-c4cc(C)ccc4Cl)n3c2cc1OC [Example 56, 1-(2-chloro-5-methylphenyl)-7,8-dimethoxy-3-methylbenzo[e]imidazo[5,1-c][1,2,4]triazine] | –
147 to 150 °C | – | – | COc1cc2nnc3c(C)nc(-c4ccccc4C(F)(F)F)n3c2cc1OC [Example 57, 7,8-dimethoxy-3-methyl-1-(2-(trifluoromethyl)phenyl)benzo[e]imidazo[5,1-c][1,2,4]triazine] | –
157 to 159 °C | – | – | Cc1nc(-c2ccccc2Cl)n2c1nnc1cc(F)c(F)cc12 [Example 58, 1-(2-chlorophenyl)-7,8-difluoro-3-methylbenzo[e]imidazo[5,1-c][1,2,4]triazine] | –
123 to 125.5 °C | – | – | Cc1nc(CC(C)C)n2c1nnc1cc(F)c(F)cc12 [Example 59, 7,8-difluoro-1-isobutyl-3-methylbenzo[e]imidazo[5,1-c][1,2,4]triazine] | –
– | 3.05 | 105 | COc1cc(O)cc2c1nnc1c(C)nc(-c3ccncc3C)n12 [Example 152, 6-methoxy-3-methyl-1-(3-methylpyridin-4-yl)benzo[e]imidazo[5,1-c][1,2,4]triazin-8-ol] | –
– | 0.67 | 73.9 | COc1cc(OCc2ccccc2)cc2c1nnc1c(C)nc(-c3cccnc3C)n12 [Example 154, 8-(benzyloxy)-6-methoxy-3-methyl-1-(2-methylpyridin-3-yl)imidazo[5,1-c][1,2,4]benzotriazine] | –
– | 5.32 | 277 | COc1cc(OCc2ccccc2)cc2c1nnc1c(C)nc(-c3cnccc3C)n12 [Example 157, 8-(benzyloxy)-6-methoxy-3-methyl-1-(4-methylpyridin-3-yl)imidazo[5,1-c][1,2,4]benzotriazine] | –
– | 322 | 242 | Cc1cn(-c2ccc3nnc4c(C)nc(C5CCCCC5)n4c3c2)c(C2CCCCC2)n1 [Example 179, 1-Cyclohexyl-8-(2-cyclohexyl-4-methyl-imidazol-1-yl)-3-methyl-imidazo[5,1-c][1,2,4]benzotriazine] | –
– | 49.5 | 6.9 | Cc1nc(-c2cc(Cl)ccc2Cl)n2c1nnc1ccc(N3CCCCC3)cc12 [Example 180, 1-(2,5-Dichloro-phenyl)-3-methyl-8-piperidin-1-yl-imidazo[5,1-c][1,2,4]benzotriazine] | –
– | 24.3 | 2.3 | Cc1nc(-c2cc(Cl)ccc2Cl)n2c1nnc1ccc(N3CCOCC3)cc12 [Example 181, 1-(2,5-Dichloro-phenyl)-3-methyl-8-morpholin-4-yl-imidazo[5,1-c][1,2,4]benzotriazine] | –
– | 32.8 | 134 | Cc1cn(-c2ccc3nnc4c(C)nc(CC(C)C)n4c3c2)c(CC(C)C)n1 [Example 182, 1-Isobutyl-8-(2-isobutyl-4-methyl-imidazol-1-yl)-3-methyl-imidazo[5,1-c][1,2,4]benzotriazine] | –
– | 12.1 | 7.79 | Cc1nc(-c2ccccc2Cl)n2c1nnc1ccc(N3CCCCC3)cc12 [Example 183, 1-(2-Chloro-phenyl)-3-methyl-8-piperidin-1-yl-imidazo[5,1-c][1,2,4]benzotriazine] | –
